Converted amounts (≈) assume the structure as drawn. Where a name gives a salt, the structure may show the parent alone. Read-outs that look alike come from different tables or passages of the source.
Assays:
[1] = tested on: S. xylosus; experiment: Uptake of doxorubicin hydrochloride by flow cytometry (FCS); assay type: cell-based, Staphylococcus xylosus; conditions: 50 μmol/L doxorubicin hydrochloride, CD-g-CS 0.5, 2, 5 mg/mL, 1 h, 37°C
Description: The cultured S. xylosus in the logarithmic phase were mixed with CD-g-CS (5, 2, or 0.5 mg/mL) containing 50 μmol/L doxorubicin hydrochloride. The mixtures were incubated at 37°C for 1 h. Subsequently, the S. xylosus solutions were centrifuged, washed three times with PBS (pH = 7.2), and resuspended in 500 μL PBS. For each sample, S. xylosus was sorted using a Flow Cytometry System (FCS). S. xylosus treated with only doxorubicin hydrochloride served as a control.

[2] = tested on: S. xylosus; experiment: Uptake of doxorubicin hydrochloride by CLSM; assay type: cell-based, Staphylococcus xylosus; conditions: 50 μmol/L doxorubicin hydrochloride, 2 mg/mL CD-g-CS, 30 min, 1 and 3 h
Description: Cultured S. xylosus in the logarithmic phase was mixed with 2 mg/mL CD-g-CS containing 50 μmol/L doxorubicin hydrochloride. The mixtures were incubated at 37°C for 30 min, 1 or 3 h. The mixtures of S. xylosus were then centrifuged, washed three times, and re-suspended in 500 μL PBS (pH = 7.2). Each sample with S. xylosus was placed on a glass slide and observed by confocal laser scanning microscopy (CLSM). S. xylosus treated with only doxorubicin hydrochloride for 30 min, 1 or 3 h served as the control.

[3] = Solubilization of sulfonamides with CD-g-CS (UV-Vis); conditions: for solubility at 2 h: 25 °C, aqueous with cosolvent or surfactant or cyclodextrin, thermodynamic from solid, solubility with CD-g-CS
Description: Acetic acid [1 mL, 1 % (v/v)] was used to dissolve 10 mg of CD-g-CS, and the pH of the solution was adjusted to be similar to that of the distilled water. […] A vortex mixer was used to mix the suspension followed by sonication for 20 min. The mixture was then stirred for 2 h at 25°C followed by the centrifugation of the suspension at 8,000 r/min for 10 min. The supernatant was filtered using a membrane with 0.45-μm pore size.

[4] = physchem; conditions: thermodynamic from solid
Description: Aqueous solubility measurements were conducted according to the method of Wang and Wang ([2000]). […] The mixture was agitated until reaching equilibrium with water in the equilibrium cell and then kept for 30 min. A known amount of the upper layer of the mixture was removed from the equilibrium cell and diluted with distilled water. The calibration curve established by ultraviolet–visible spectrophotometry (UV–Vis) was used to determine the concentration of the solution.

[5] = added 6 μg/mL (sulfamethoxazole 8 μg/mL)
Description: The stability test was performed by keeping the samples for 0h, 1h, 2h, 4h, 6h, 8h, 24h at room temperature before analysis. […] S2.

| SMILES | uptake of doxorubicin hydrochloride (fluorescence intensity, FCS) [1] | uptake of doxorubicin hydrochloride (fluorescence intensity, CLSM) [2] | solubility at 2 h ([3]; 10 mg/mL CD-g-CS solution, with 10 mg/mL CD-g-CS (QCD = 0.6 × 10^2 μmol/g)) [µg/mL] | solubility at 2 h ([3]; 10 mg/mL CD-g-CS solution, with 10 mg/mL CD-g-CS (QCD = 0.643 × 10^3 μmol/g)) [µg/mL] | solubility enhancement compared to the aqueous solution ([3]; with 10 mg/mL CD-g-CS (QCD = 0.6 × 10^2 μmol/g)) | solubility enhancement compared to the aqueous solution ([3]; with 10 mg/mL CD-g-CS (QCD = 0.643 × 10^3 μmol/g)) [times] | solubility ([4]; water) [µg/mL] | Measured concentration ([5]; 0h at room temperature) [µg/mL] | Measured concentration ([5]; 1h at room temperature) [µg/mL] | Measured concentration ([5]; 2h at room temperature) [µg/mL] | Measured concentration ([5]; 4h at room temperature) [µg/mL] | Measured concentration ([5]; 6h at room temperature) [µg/mL] | Measured concentration ([5]; 8h at room temperature) [µg/mL] | Measured concentration ([5]; 24h at room temperature) [µg/mL] | solubility at 2 h [3] [µg/mL] | solubility ([4]; distilled water) [µg/mL] |
| --- | --- | --- | --- | --- | --- | --- | --- | --- | --- | --- | --- | --- | --- | --- | --- | --- |
| COc1cccc2c1C(=O)c1c(O)c3c(c(O)c1C2=O)C[C@@](O)(C(=O)CO)C[C@@H]3O[C@H]1C[C@H](N)[C@H](O)[C@H](C)O1 [doxorubicin hydrochloride] | very low | very weak |  |  |  |  |  |  |  |  |  |  |  |  |  |  |
| Nc1ccc(S(=O)(=O)Nc2ncccn2)cc1 [sulfadiazine] |  |  | 147 ± 7.05 (≈ 587 µM) | 236 ± 4.25 (≈ 943 µM) | approximately 5.6 times | 9.1 | 26 ± 1.68 (≈ 104 µM) | 5.98 ± 0.078 | 6.04 ± 0.058 | 6.13 ± 0.013 | 5.89 ± 0.047 | 5.95 ± 0.055 | 6.14 ± 0.043 | 6.02 ± 0.054 |  |  |
| COc1cc(NS(=O)(=O)c2ccc(N)cc2)ncn1 [sulfamonomethoxine] |  |  |  |  |  |  |  | 6.09 ± 0.060 | 6.09 ± 0.026 | 5.93 ± 0.021 | 6.12 ± 0.018 | 5.88 ± 0.018 | 6.12 ± 0.046 | 6.13 ± 0.015 | 283 ± 13 (≈ 1010 µM) | 69 ± 1.59 (≈ 246 µM) |

— publication PMC6335354, “Chitosan Grafted With β-Cyclodextrin: Synthesis, Characterization, Antimicrobial Activity, and Role as Absorbefacient and Solubilizer” (Frontiers in Chemistry, 2019)
